Measurements taken from patent publication US9561228B2 (Celgene Avilomics Research, Inc., priority 2013, dated 2017).

Legend:
MEK1 activated ERK1 = molecular target: T1, MEK1 activated ERK1 (Homo sapiens, UniProt P27361); experiment: Omnia continuous-read kinase assay for potency against MEK1 activated ERK1; format: biochemical; conditions: MEK1 activated ERK1, ATP at KM; read-out: ERK1 Omnia WT ATP KM IC50
T1 construct: purchased Millipore (Billerica, Mass.) 14-439-K
Method in brief: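 Apparent IC50 came from initial reaction slopes (RFU vs time) plotted against log inhibitor with a variable-slope fit. Reactions were started with ERK1 (4 nM final) added to 50 μM ATP, roughly at its appKM, and 10 μM Sox-conjugated ST17 peptide in 20 mM Tris pH 7.5, 5 mM MgCl2. Fluorescence was monitored every 71 seconds.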

Erk1 = molecular target: T2, Erk1 (Homo sapiens, UniProt P27361); experiment: Protein Mass Modification Assay (intact protein MALDI, 60 min, 10-fold excess of compound); format: binding
T2 construct: purchased Millipore 14-439
Experimental: Protein Mass Modification Assay
Intact protein: Erk1 from Millipore (Cat. No. 14-439) was incubated for 60 min. at room temperature with a 10-fold excess of test compound to protein. 4 μL aliquots of the resulting mixture were diluted with 15 μL of 0.2% TFA prior to micro C4 ZipTipping directly onto the MALDI target using sinapinic acid as the desorption matrix (10 mg/ml in 0.1% TFA:Acetonitrile 50:50, v/v). The centroid mass of the target protein in the control sample was compared with the centroid mass of the target protein incubated with compound. A shift in the centroid mass of the treated protein compared to the untreated protein was divided by the molecular weight of the compound. This number corresponds to the percentage of modified protein after one hour incubation. Results from this assay are reported in Table A under the column “ERK1 Mass Mod (%).”

[1] = system: ERK1/2 phosphorylation of p90RSK in HT29 cells; experiment: pRSK MSD Assay in HT29 cells; format: cell-based; conditions: Homo sapiens, HT-29, read-out: ERK1/ERK2 PRSK MSD HT29 EC50
Method in brief: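 Serum-starved HT29 cells (0.1% FBS overnight) treated with test compound for 120 min at 37° C, then lysed with protease and phosphatase inhibitors. Phospho-p90RSK quantified by MSD sandwich immunoassay: RSK capture antibody, phospho-RSK detection antibody plus Sulfo-tagged antibody, electrochemiluminescence read.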

[2] = system: A375 cells (malignant melanoma); experiment: Inhibition of cancer cell proliferation, A375 (CellTiterGlo, 72 hours); format: cell-based; conditions: Homo sapiens, A-375
Experimental: Measurement of Inhibition of Cancer Cell Proliferation (A375/Malignant Melanoma)
The following protocol used an A375 cell line, which cell line is a model for malignant melanoma. A375 cells were split and 3000 cells in […] of growth medium were added per well of a flat-bottom 96-well plate. A two-fold test compound solution in serum-free DMEM was made, starting at 5,000 nM. Then, 3-fold serial dilutions were made across the plate from well 1 to well 11. Well 12, the last well in a row on the plate, was left as untreated control. 100 μl compound solutions were then transferred to the wells, so the total volume of media was 200 μl per well. Plates were returned to a 37° C. incubator, and the cells were cultured for 72 hours. To measure cell proliferation after 72 hours, media was discarded from the plates, 50 μl/well of fresh medium was added, and 50 μl CellTiterGlo solution was added (Promega Cat#G7573). The plate was covered with a dark lid and incubated for 10 min. A white sealing tape was applied to the bottom of the plate, and the plate was read in a luminescence plate reader. […] 50 μl CellTiterGlo was added per well, and the plate was read in a luminescence plate reader after 10 min. The reading was plotted vs. cell number to generate a standard curve and the equation of the curve fit. The compound-treated sample luminescence readings were converted to cell numbers using the curve-fit equation. The percent of inhibition, using untreated control as 100% growth, was then calculated. GI50 was then calculated by GraphPad Prism.

[3] = system: HT-29 cells (colorectal adenocarcinoma); experiment: Inhibition of cancer cell proliferation, HT-29 (CellTiterGlo, 72 hours); format: cell-based; conditions: Homo sapiens
Method in brief: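 HT-29 cells seeded at 3000/well, then treated with 3-fold serial dilutions from a 5,000 nM two-fold solution in serum-free RPMI1640, untreated wells as control, for 72 h at 37° C. CellTiterGlo luminescence converted to cell number via a standard curve; GI50 from percent inhibition versus untreated growth.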

T2 sequence (P27361 whole entry): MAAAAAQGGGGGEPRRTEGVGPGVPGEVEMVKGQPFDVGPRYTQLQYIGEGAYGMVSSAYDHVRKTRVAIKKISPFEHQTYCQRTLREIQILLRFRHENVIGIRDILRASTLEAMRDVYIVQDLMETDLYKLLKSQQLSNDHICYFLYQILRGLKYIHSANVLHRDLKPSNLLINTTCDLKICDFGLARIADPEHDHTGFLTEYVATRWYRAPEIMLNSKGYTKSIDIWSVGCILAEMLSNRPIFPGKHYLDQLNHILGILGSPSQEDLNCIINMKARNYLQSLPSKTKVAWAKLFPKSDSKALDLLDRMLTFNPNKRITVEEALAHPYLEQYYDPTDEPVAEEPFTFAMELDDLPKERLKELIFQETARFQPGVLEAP
T1 sequence (P27361 whole entry): as above

EC50 [1] [nM]	GI50 [2] [nM]	GI50 [3] [nM]	SMILES	IC50 (MEK1 activated ERK1) [nM]	ERK1 Mass Mod (%) (Erk1)
–	–	–	C=CC(=O)Nc1ccccc1Nc1nc(Nc2cc(C(=O)NOCCO)ccc2C#N)ncc1Cl [Compound I-202, 3-((4-((2-acrylamidophenyl)amino)-5-chloropyrimidin-2-yl)amino)-4-cyano-N-(2-hydroxyethoxyl)benzamide]	101 to 500	F (a mass modification of 31-69%)
–	–	–	C=CC(=O)Nc1ccccc1Nc1nc(Nc2ccc(N3CCN(C(C)=O)CC3)cc2OC)ncc1C(F)(F)F [Compound I-66, N-(2-((2-((4-(4-Acetylpiperazin-1-yl)-2-methoxyphenyl)amino)-5-(trifluoromethyl)pyrimidin-4-yl)amino)phenyl)acrylamide]	501 to 999	E (key: E: a mass modification of ≧70%; F: a mass modification of 31-69%; G: a mass modification ≦30%)
–	–	–	C=CC(=O)Nc1cc(F)ccc1Nc1nc(N[C@H]2CC[C@@H](F)CC2)ncc1C(F)(F)F [Compound I-8, N-(5-fluoro-2-((2-((cis-4-fluorocyclohexyl)amino)-5-(trifluoromethyl)pyrimidin-4-yl)amino)phenyl)acrylamide]	101 to 500	E (a mass modification of ≧70%)
–	–	–	C=CC(=O)Nc1ccccc1Nc1nc(N[C@H]2CC[C@H](F)CC2)ncc1C(F)(F)F [Compound I-111, N-(2-((2-(trans-(4-fluorocyclohexyl)amino)-5-(trifluoromethyl)pyrimidin-4-yl)amino)phenyl)acrylamide]	–	E (a mass modification of ≧70%)
–	–	–	C=CC(=O)Nc1ccccc1Nc1nc(Nc2ccc(N(CCNC(=O)OC(C)(C)C)C(C)=O)cc2OC)ncc1Cl [Compound I-174, tert-butyl(2-(N-(4-((4-((2-acrylamidophenyl)amino)-5-chloropyrimidin-2-yl)amino)-3-methoxyphenyl)acetamido)ethyl)carbamate]	501 to 999	E (a mass modification of ≧70%)
–	–	–	C=CC(=O)Nc1ccccc1Nc1nc(Nc2ccc(N3CCN(C(C)=O)CC3)cc2OC)ncc1Cl [Compound I-149, N-(2-((2-((4-(4-acetylpiperazin-1-yl)-2-methoxyphenyl)amino)-5-chloropyrimidin-4-yl)amino)phenyl)acrylamide]	101 to 500	E (key: E: a mass modification of ≧70%; F: a mass modification of 31-69%; G: a mass modification ≦30%)
101 to 500	–	–	C#CCOc1cc(C)c(Nc2ncc(Cl)c(Nc3ccccc3NC(=O)C=C)n2)cc1C(N)=O [Compound I-228, 5-((4-((2-acrylamidophenyl)amino)-5-chloropyrimidin-2-yl)amino)-4-methyl-2-(prop-2-yn-1-yloxy)benzamide]	101 to 500	E (a mass modification of ≧70%)
> 1000	–	–	CC(=O)N1CCC[C@H](Nc2ncc(C(F)(F)F)c(Nc3ccccc3NC(=O)CCCl)n2)C1 [Compound I-21, (S)—N-(2-((2-((1-Acetylpiperidin-3-yl)amino)-5-(trifluoromethyl)pyrimidin-4-yl)amino)phenyl)-3-chloropropanamide]	101 to 500	G (a mass modification ≦30%)
–	–	–	C=CC(=O)Nc1cc(OC)ccc1Nc1nc(Nc2ccc(N3CCC[C@H]3C(N)=O)cc2C#N)ncc1Cl [Compound I-178, (S)-1-(4-((4-((2-acrylamido-4-methoxyphenyl)amino)-5-chloropyrimidin-2-yl)amino)-3-cyanophenyl)pyrrolidine-2-carboxamide]	101 to 500	E (a mass modification of ≧70%)
< 100	< 100	< 100	C=CC(=O)Nc1cc(C)ccc1Nc1nc(Nc2cc(C(N)=O)ccc2C)ncc1C(F)(F)F [Compound I-79, 3-((4-((2-Acrylamido-4-methylphenyl)amino)-5-(trifluoromethyl)pyrimidin-2-yl)amino)-4-methylbenzamide]	101 to 500	–
–	–	–	C=CC(=O)Nc1ccccc1Nc1nc(N[C@@H]2CCC[C@H](C(=O)O)C2)ncc1Cl (racemic) [Compound I-133, Rac-3-((4-((2-acrylamidophenyl)amino)-5-chloropyrimidin-2-yl)amino)-cis-cyclohexanecarboxylic acid]	101 to 500	E (a mass modification of ≧70%)
101 to 500	101 to 500	101 to 500	C=CC(=O)Nc1cc(C)ccc1Nc1nc(Nc2cc(C(=O)NC)c(F)cc2C)ncc1Cl [Compound I-233, 5-((4-((2-acrylamido-4-methylphenyl)amino)-5-chloropyrimidin-2-yl)amino)-2-fluoro-N,4-dimethylbenzamide]	101 to 500	–
–	–	–	C=CC(=O)Nc1cc(OC)ccc1Oc1nc(Nc2ccc(N3CCC[C@@H]3CO)cc2OC)ncc1C(N)=O [Compound I-264, (R)-4-(2-acrylamido-4-methoxyphenoxy)-2-((4-(2-(hydroxymethyl)pyrrolidin-1-yl)-2-methoxyphenyl)amino)pyrimidine-5-carboxamide]	> 1000	F (a mass modification of 31-69%)
< 100	< 100	< 100	C=CC(=O)Nc1cc(C)ccc1Nc1nc(Nc2ccnc(OC)c2)ncc1Cl [Compound I-235, N-(2-((5-chloro-2-((2-methoxypyridin-4-yl)amino)pyrimidin-4-yl)amino)-5-methylphenyl)acrylamide]	101 to 500	–
101 to 500	101 to 500	101 to 500	C=CC(=O)Nc1cc(C)ccc1Nc1nc(Nc2cc(C(=O)NCCO)c(F)cc2C)ncc1Cl [Compound I-234, 5-((4-((2-acrylamido-4-methylphenyl)amino)-5-chloropyrimidin-2-yl)amino)-2-fluoro-N-(2-hydroxyethyl)-4-methylbenzamide]	101 to 500	–
> 1000	101 to 500	101 to 500	CC(=O)N1CCC[C@H](Nc2ncc(C(F)(F)F)c(N[C@H]3[C@@H](C(N)=O)[C@@H]4C=C[C@H]3C4)n2)C1 [Compound I-308, (1S,2S,3R,4R)-3-((2-(((S)-1-acetylpiperidin-3-yl)amino)-5-(trifluoromethyl)pyrimidin-4-yl)amino)bicyclo[2.2.1]hept-5-ene-2-carboxamide]	101 to 500	–

SMILES	EC50 [1] [nM]	GI50 [2] [nM]	GI50 [3] [nM]	IC50 (MEK1 activated ERK1) [nM]	ERK1 Mass Mod (%) (Erk1)
C=CC(=O)N[C@@H]1CCCC[C@H]1Nc1nc(N[C@H]2CCCN(C(=O)CO)C2)ncc1C(F)(F)F [Compound I-32, N-((1R,2R)-2-((2-(((S)-1-(2-hydroxyacetyl)piperidin-3-yl)amino)-5-(trifluoromethyl)pyrimidin-4-yl)amino)cyclohexyl)acrylamide]	> 1000	–	–	101 to 500	F (a mass modification of 31-69%)
C/C=C/C(=O)Nc1cc(F)ccc1Nc1nc(N[C@@H]2CCC[C@H](C(N)=O)C2)ncc1Cl (racemic) [Compound I-113, Rac-cis-(E)-3-((4-((2-(but-2-enamido)-4-fluorophenyl)amino)-5-chloropyrimidin-2-yl)amino)cyclohexanecarboxamide]	> 1000	–	–	> 1000	F (key: E: a mass modification of ≧70%; F: a mass modification of 31-69%; G: a mass modification ≦30%)
C=CC(=O)N[C@H]1CCCC[C@@H]1Nc1nc(N[C@H]2CCCN(C(=O)CO)C2)ncc1C(F)(F)F (racemic) [Compound I-27, Rac-N-(2-((2-(((R)-1-(2-hydroxyacetyl)piperidin-3-yl)amino)-5-(trifluoromethyl)pyrimidin-4-yl)amino)-trans-cyclohexyl)acrylamide]	501 to 999	–	–	–	F (key: E: a mass modification of ≧70%; F: a mass modification of 31-69%; G: a mass modification ≦30%)
